From patent US20250091992A1, “NOVEL COMPOUNDS AND USES THEREOF” (KANNA HEALTH LIMITED, priority 2021, published 2025)

Key:
[1] = molecular target: T1, hSERT (Homo sapiens, UniProt P31645); assay: SERT assay (Compounds of Formula II), transporter uptake assay kit; assay type: cell-based
T1 construct: expressed in transfected cells
Protocol: SERT assays were performed using a standard transporter uptake assay kit, (Molecular devices, (R8174)). In short, test compounds (10 nM-30 μM), reference compound or vehicle control were added to cells stably expressing hSERT (20,000/well) in assay buffer containing HBSS (20 mM) and BSA (0.1% (w/v)) for 30 mins at 30° C. Assay plates were incubated in the presence of dye for a further 60 mins at 37° C. and intracellular fluorescence intensity was determined.

[2] = molecular target: T2, PDE-4A1A (Homo sapiens, UniProt P27815); assay: PDE-41A assay (Compounds of Formula II), AMP-Glo; assay type: biochemical
T2 construct: purchased Sigma SRP0262
Protocol: PDE-41A assays were performed using the AMP-Glo™ Assay Kit, (Promega-V5012) human recombinant […] (Sigma, SRP0262) according to recommended protocols. […]

[3] = molecular target: human recombinant PDE-4D2 (Homo sapiens, UniProt Q08499); assay: PDE4-D2 assay (Compounds of Formula I), SPA; assay type: biochemical; conditions: for inhibition at 30 µM: relative to Ro 20-1724; for IC50: 4-parameter logistical fit, two technical replicates
Protocol: (§1) 20 mins after addition of human recombinant PDE-4B1 (1.2 IEU) or PDE-4D2 (1.5 IEU), SPA beads were added and incubated at 22° C. for a further 30 mins. [^3H]5′AMP was quantified by a standard scintillation counting method.

[4] = molecular target: human recombinant PDE-4B1 (Homo sapiens, UniProt Q07343); assay: PDE4-B1 assay (Compounds of Formula I), SPA; assay type: biochemical; conditions: for inhibition at 30 µM: relative to Ro 20-1724; for IC50: 4-parameter logistical fit, two technical replicates
Protocol: as §1

[5] = molecular target: human serotonin transporter (Homo sapiens, UniProt P31645); conditions: for inhibition: 10 µM;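 on all read-outs here: Read-out: uptake of tritium-labelled serotonin, measured by scintillation counting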
Protocol: Following incubation, [^3H] serotonin uptake was quantified by a standard scintillation counting method.

[6] = in vivo; parameters: species or system male C57Bl/6J mice; conditions: male, C57Bl/6J, mouse, ip, 30 mg/kg
Protocol: Groups of 18 male C57Bl/6J mice (weighing between 22.7 and 27.3 g) received a single administration of test compound (30 mg/kg; i.p.) in methylcellulose (0.5% w/v) at a nominal concentration of […].
Three mice from each dose group were subject to cardiac puncture under general anesthesia at 0.25, 0.50, 1.00, 1.50, 2.00 and 4.00 hours post-dose and plasma samples generated for application of standard LC-MS/MS bioanalytical methods.
Quantitation of compound concentration was derived from reference calibration data. Pharmacokinetic data were derived from serial plasma concentrations.

human recombinant PDE-4B1, sequence (Q07343 whole entry): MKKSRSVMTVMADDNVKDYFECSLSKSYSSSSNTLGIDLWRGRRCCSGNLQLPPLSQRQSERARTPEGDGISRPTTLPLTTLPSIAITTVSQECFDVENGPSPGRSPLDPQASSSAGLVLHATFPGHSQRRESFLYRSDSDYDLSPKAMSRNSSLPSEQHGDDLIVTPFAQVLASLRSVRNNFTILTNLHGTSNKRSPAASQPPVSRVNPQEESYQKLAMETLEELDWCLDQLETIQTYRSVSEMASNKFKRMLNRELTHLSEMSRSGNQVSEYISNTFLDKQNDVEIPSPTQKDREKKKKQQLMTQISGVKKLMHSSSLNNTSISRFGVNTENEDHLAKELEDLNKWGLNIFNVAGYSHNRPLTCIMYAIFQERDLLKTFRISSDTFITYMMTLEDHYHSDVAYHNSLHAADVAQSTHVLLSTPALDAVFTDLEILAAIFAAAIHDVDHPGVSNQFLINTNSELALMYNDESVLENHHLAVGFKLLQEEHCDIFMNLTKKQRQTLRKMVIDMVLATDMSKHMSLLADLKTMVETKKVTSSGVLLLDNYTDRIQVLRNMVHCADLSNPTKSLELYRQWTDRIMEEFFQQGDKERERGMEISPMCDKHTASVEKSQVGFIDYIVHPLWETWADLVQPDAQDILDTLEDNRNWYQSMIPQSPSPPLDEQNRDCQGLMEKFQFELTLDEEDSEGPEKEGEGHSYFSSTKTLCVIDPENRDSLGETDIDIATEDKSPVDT
T2 sequence (P27815 1-647 isoform P27815-4): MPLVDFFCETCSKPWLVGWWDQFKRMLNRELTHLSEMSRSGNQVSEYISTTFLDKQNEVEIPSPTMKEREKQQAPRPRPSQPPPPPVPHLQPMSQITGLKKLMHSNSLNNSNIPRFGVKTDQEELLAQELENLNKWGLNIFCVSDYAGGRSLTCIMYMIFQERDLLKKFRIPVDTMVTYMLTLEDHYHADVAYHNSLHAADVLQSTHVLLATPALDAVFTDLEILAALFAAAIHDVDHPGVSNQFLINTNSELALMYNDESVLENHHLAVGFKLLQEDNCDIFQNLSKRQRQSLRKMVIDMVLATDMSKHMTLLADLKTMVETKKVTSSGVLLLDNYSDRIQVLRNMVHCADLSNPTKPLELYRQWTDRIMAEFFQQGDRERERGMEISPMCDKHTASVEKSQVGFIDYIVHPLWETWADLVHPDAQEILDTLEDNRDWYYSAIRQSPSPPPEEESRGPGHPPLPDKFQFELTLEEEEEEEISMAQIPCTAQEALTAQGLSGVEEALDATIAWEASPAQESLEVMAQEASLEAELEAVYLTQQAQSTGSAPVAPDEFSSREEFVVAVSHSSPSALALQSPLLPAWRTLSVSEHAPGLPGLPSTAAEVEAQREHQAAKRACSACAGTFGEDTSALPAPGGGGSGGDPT
T1 sequence (P31645 whole entry): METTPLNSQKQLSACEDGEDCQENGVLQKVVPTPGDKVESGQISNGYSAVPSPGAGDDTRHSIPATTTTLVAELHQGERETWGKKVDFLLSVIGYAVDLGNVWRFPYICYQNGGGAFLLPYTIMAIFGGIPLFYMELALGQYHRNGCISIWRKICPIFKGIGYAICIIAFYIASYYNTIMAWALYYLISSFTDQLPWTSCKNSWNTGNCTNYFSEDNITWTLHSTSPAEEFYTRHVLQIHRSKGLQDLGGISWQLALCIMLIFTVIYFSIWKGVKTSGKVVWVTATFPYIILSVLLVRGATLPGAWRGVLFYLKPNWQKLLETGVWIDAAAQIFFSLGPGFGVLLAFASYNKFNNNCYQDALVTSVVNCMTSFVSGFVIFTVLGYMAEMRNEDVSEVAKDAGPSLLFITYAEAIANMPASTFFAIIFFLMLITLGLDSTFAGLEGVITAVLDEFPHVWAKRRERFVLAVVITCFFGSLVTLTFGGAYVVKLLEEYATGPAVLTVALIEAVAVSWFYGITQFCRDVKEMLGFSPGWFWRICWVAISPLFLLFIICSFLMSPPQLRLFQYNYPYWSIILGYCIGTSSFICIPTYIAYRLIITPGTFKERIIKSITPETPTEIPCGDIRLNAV
human serotonin transporter, sequence (P31645 whole entry): as above
human recombinant PDE-4D2, sequence (Q08499 303-809): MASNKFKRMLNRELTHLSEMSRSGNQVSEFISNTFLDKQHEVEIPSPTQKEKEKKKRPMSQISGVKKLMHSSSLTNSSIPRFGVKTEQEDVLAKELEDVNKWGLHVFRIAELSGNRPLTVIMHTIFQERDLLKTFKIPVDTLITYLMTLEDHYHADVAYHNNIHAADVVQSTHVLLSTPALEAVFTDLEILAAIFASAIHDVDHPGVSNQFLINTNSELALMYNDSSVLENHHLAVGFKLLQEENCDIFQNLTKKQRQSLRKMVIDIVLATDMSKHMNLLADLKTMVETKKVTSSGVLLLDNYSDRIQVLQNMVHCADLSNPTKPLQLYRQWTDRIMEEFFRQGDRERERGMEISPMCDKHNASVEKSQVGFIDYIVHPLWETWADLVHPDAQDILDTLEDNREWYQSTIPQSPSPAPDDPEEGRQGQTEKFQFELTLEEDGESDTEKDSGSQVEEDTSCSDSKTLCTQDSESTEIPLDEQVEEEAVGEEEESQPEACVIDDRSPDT

SMILES | inhibition at 1 µM [1] [%] | inhibition at 3 µM [1] [%] | inhibition at 30 µM [2] [%] | inhibition at 100 µM [2] [%] | inhibition [5] [%] | further results
COc1ccc([C@@]23C=C[C@@H](OC(=O)CCC(=O)O)C[C@@H]2N(C)CC3)cc1OC [Compound 54] | 78 | 98 | 98 | 101 | – | –
CCOc1ccc([C@@]23CCC(=O)C[C@@H]2N(C)CC3)cc1O [Compound 16] | – | – | – | – | 98 | inhibition at 30 µM [3]: 3%; inhibition at 30 µM [4]: -1%
CCCCOc1cc([C@@]23CCC(=O)C[C@@H]2N(C)CC3)ccc1OC(C)C [Compound 30] | – | – | – | – | 95 | inhibition at 30 µM [3]: 31%; inhibition at 30 µM [4]: 24%
CC(C)Oc1ccc([C@@]23CCC(=O)C[C@@H]2N(C)CC3)cc1OC1CCCC1 [Compound 28] | – | – | – | – | 98 | inhibition at 30 µM [3]: 55%; inhibition at 30 µM [4]: 53%
COc1ccc([C@@]23C=C[C@@H](OC(=O)CN)C[C@@H]2N(C)CC3)cc1OC [Compound 56] | 86 | 99 | 74 | 102 | – | –
COc1ccc([C@@]23C=C[C@@H](OC(=O)CCCC(=O)O)C[C@@H]2N(C)CC3)cc1OC [Compound 55] | 67 | 97 | 100 | 95 | – | –
COc1ccc([C@@]23CC[C@@H](OC(=O)CCC(=O)O)C[C@@H]2N(C)CC3)cc1OC [Compound 46] | 81 | 94 | 53 | 79 | – | –
CCSc1cc([C@@]23CCC(=O)C[C@@H]2N(C)CC3)ccc1OC [Compound 3] | – | – | – | – | – | IC50 [3]: 1.3 µM; IC50 [4]: 5.2 µM; IC50 [5]: 5 nM
CC(C)Oc1ccc([C@@]23CCC(=O)C[C@@H]2N(C)CC3)cc1OC1CCCCC1 [Compound 26] | – | – | – | – | 81 | inhibition at 30 µM [3]: 20%; inhibition at 30 µM [4]: 26%
CCOc1ccc([C@@]23CCC(=O)C[C@@H]2N(C)CC3)cc1OCC1CC1 [Compound 24] | – | – | – | – | 91 | AUC(0-inf) [6]: 825 ng·h/mL; Cmax [6]: 492 ng/mL; Tmax [6]: 15 min; half-life [6]: 76.8 min; IC50 [5]: 20 nM
CCC(=O)O[C@@H]1CC[C@@]2(c3ccc(OC)c(OC)c3)CCN(C)[C@H]2C1 [Compound 50] | 98 | 98 | 92 | 101 | – | –
COc1ccc([C@@]23C=C[C@@H](OC(=O)C(C)N)C[C@@H]2N(C)CC3)cc1OC (stereo partly drawn) [Compound 57] | 86 | 97 | 101 | 102 | – | –
CCOc1ccc([C@@]23CCC(=O)C[C@@H]2N(C)CC3)cc1OC1CCCCC1 [Compound 23] | – | – | – | – | 77 | inhibition at 30 µM [3]: 93%; inhibition at 30 µM [4]: 88%
CCOc1cc([C@@]23CCC(=O)C[C@@H]2N(C)CC3)ccc1OC(C)C [Compound 29] | – | – | – | – | 99 | inhibition at 30 µM [3]: 32%; inhibition at 30 µM [4]: 40%
COc1ccc([C@@]23CC[C@@H](OC(=O)CCCC(=O)O)C[C@@H]2N(C)CC3)cc1OC [Compound 47] | 90 | 94 | 40 | 88 | – | –
COc1ccc([C@@]23CCC(=O)C[C@@H]2N(C)CC3)cc1O [Compound 10] | – | – | – | – | – | IC50 [3]: > 30 µM; IC50 [4]: > 30 µM; IC50 [5]: 300 nM
COc1ccc([C@@]23CC[C@@H](OC(=O)C(C)N)C[C@@H]2N(C)CC3)cc1OC (stereo partly drawn) [Compound 49] | 95 | 97 | 87 | 86 | – | –
COc1cc([C@@]23CCC(=O)C[C@@H]2N(C)CC3)ccc1OCC1CC1 [Compound 34] | – | – | – | – | – | IC50 [3]: > 30 µM; IC50 [4]: > 30 µM; IC50 [5]: 900 nM
COc1ccc([C@@]23C=C[C@@H](OC(=O)c4ccccc4)C[C@@H]2N(C)CC3)cc1OC [Compound 60] | 92 | 95 | 98 | 100 | – | –
C=CCOc1cc([C@@]23CCC(=O)C[C@@H]2N(C)CC3)ccc1OCC1CC1 [Compound 38] | – | – | – | – | – | IC50 [3]: > 30 µM; IC50 [4]: > 30 µM; IC50 [5]: 400 nM
COc1ccc([C@@]23C=C[C@@H](OC(=O)C(C)C)C[C@@H]2N(C)CC3)cc1OC [Compound 59] | 99 | 97 | 100 | 100 | – | –
CSc1cc([C@@]23CCC(=O)C[C@@H]2N(C)CC3)ccc1OC(C)C [Compound 25] | – | – | – | – | – | IC50 [3]: > 30 µM; IC50 [4]: > 30 µM
